Experimental data from patent US20110165226A1, “INFLUENZA CAP-LEADER SEQUENCE” (priority 2008, published 2011).

Test system: Influenza virus strain A/Puerto Rico/8/34 (H1/N1)
Type: biochemical

Substance	transcripts containing capped leaders originating from the mutant [transcripts]
C9A10G11C12: leader length construct, CAGC within oligo U stretch, first base pairing A at position 10 (DNA CGACTCACTATAGTATTTTTCAGCTTTTTTTTTTCAAAATATTCCAAT; chemistry not fully specified; the letters are possibly those of the target site)	9
C10A11G12C13: leader length construct, CAGC within oligo U stretch, first base pairing A at position 11 (DNA CGACTCACTATAGTATTTTTTCAGCTTTTTTTTTCAAAATATTCCAAT; chemistry not fully specified; the letters are possibly those of the target site)	5
